# Measurements: US7288407B2, “Stable cytochrome P450 24 (CYP24) expressing cell line and methods and uses thereof” (Cytochroma, Inc., priority 2002, dated 2007)
# Target: T1, CYP24 (Homo sapiens, UniProt Q07973)
# T1 construct: The full-length CYP24 cDNA was amplified using one-step RT-PCR kit; expressed in transfected cells
# T1 sequence (Q07973 36-514): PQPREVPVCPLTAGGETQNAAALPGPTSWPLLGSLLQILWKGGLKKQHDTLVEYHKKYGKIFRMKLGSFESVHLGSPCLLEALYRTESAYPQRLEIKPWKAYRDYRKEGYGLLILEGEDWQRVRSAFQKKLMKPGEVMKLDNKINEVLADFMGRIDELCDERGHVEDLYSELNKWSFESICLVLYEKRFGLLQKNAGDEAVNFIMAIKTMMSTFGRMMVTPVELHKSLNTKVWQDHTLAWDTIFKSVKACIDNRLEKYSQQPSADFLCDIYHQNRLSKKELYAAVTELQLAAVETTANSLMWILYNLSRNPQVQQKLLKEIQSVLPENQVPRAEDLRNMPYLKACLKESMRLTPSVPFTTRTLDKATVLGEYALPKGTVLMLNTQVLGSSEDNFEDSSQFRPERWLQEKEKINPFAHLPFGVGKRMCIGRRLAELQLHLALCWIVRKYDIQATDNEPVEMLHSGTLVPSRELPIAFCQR
# Test: CYP24 enzyme assay using stable CYP24-V79 cells
# Format: cell-based
# Conditions: Bligh-Dyer extraction, organic phase from 3 hours analyzed by HPLC
# Procedure: CYP24/V79 cells were suspended, counted, seeded on well plates and extracted using the Bligh-Dyer extraction method. […] To induce cells, media was removed and the cells washed with 1× PBS buffer. […] Next, a cell suspension was prepared at the day of assay by removing the medium and washing the cell with PBS. 2 ml tripsin/EDTA was added to the plate which was kept in 37° C. for 5 min. Next, 3 ml EDTA medium+1% FCS was added followed by transfer to a 50 ml tube. The plate was washed with 5 ml PBS and mixed. The mix was centrifuged (2,000 rpm, 5 min) and the suspended cells pelleted in DMEM medium+1% BSA. […] About 5 mL 1× PBS buffer was added to collect cells from the plate and then placed in a 50 mL tube followed by repetition with second cell line. About 5 mL 1× PBS buffer was added to further wash the plate and added to the original 50 mL tube. Tubes were centrifuged (2,000 rpm/800 g for 6 minutes) and the supernatant removed. […] The cells were counted via hemocytometer and density adjusted to 250,000 cells/150 μL (1.67 million/1 mL) and then 150 μL added to appropriately labeled wells of 48-well plate. […] The cells were counted and cell density was adjusted to 500,000/150 μL. […] The plate is counted in a scintillation counter. Enzyme activity was then calculated.
structure (smiles),measurement,value
CC[C@H]1OC(=O)[C@H](C)[C@@H](O[C@H]2C[C@@](C)(OC)[C@@H](O)[C@H](C)O2)[C@H](C)[C@@H](O[C@@H]2O[C@H](C)C[C@H](N(C)C)[C@H]2O)[C@](C)(O)C[C@@H](C)C(=O)[C@H](C)[C@@H](O)[C@]1(C)O [erythromycin],effect on CYP24 activity (inhibitor/activator),inhibitors
